Earlier results in patent US20230172203A1, “PLANT METABOLISM PROMOTING COMPOSITIONS AND METHODS OF USE” (Panoptic Ag Solutions LLC, priority 2021, published 2023).

Test system: tea plants
Conditions: exogenous application; background statement; cited from earlier work

## CNC(=O)CC[C@H](N)C(=O)O [γ-glutamylmethylamide]
  quality and yield of tea plants (in words): can improve the quality and yield of tea plants by increasing the number of usable leaves
